# Positions of bridges follow the written chain, without caps; N, C: chain ends. Non-standard residues stand in square brackets, D forms with d. No end group written: not given here. Abu = CC[C@H](N)C(=O)O; Dhb = C/C=C(\N)C(=O)O; Dha = C=C(N)C(=O)O
# Key:
# Experiment in all cases: MIC assay, anaerobic broth dilution
# B. luti MSK.20.18 = type: cell-based, Blautia luti; settings: BHIS, 37 °C, 48 h, 3-fold serial dilution
# Text: (§1) Antibiotic treatment may result in collateral damage to commensal bacteria in the human microbiome, leading to dysbiosis and susceptibility to various diseases.[44] How lantibiotics impact Gram-positive commensals from the human gut has remained unclear. Therefore, we performed antimicrobial activity tests of these lantibiotics against selected Gram-positive human gut commensals, most of which belong to the Lachnospiraceae family, one of the most abundant bacterial families in the human gut.[27] In general, human gut commensals were more susceptible to the set of investigated lantibiotics compared to pathogens (Figure 3). […]
# (§2) Isolation of human gut commensal bacteria
# (§3) Isolation and growth of commensal bacteria was done as previously reported.5 Briefly, fresh donor fecal samples were transferred into an anaerobic chamber (Coy Labs) within 1 h of collection. The anaerobic chamber was maintained using a gas mix consisting of 5% hydrogen, 5% carbon dioxide and 90% nitrogen, and hydrogen was maintained at ~3.0% using an anaerobic gas infuser. […]
# (§4) All MIC assays were performed under anaerobic condition. […] Lantibiotics were dissolved in DPBS, and concentrations were determined by BCA assay (Pierce) according to the manufacturer’s protocol. […]
# S. aureus USA300 (MRSA) = type: cell-based, Staphylococcus aureus; settings: BHIS, 37 °C, 48 h, 3-fold serial dilution
# Text: (§5) Next, we set out to test the antimicrobial activities of these purified lantibiotics against a panel of Gram-positive bacteria that are representatives of some of the most prevalent human pathogens: VRE, Methicillin-resistant S. aureus USA300 (MRSA), Methicillin-resistant Staphylococcus epidermidis SK135 (MRSE), Listeria monocytogenes 10403S, and Clostridioides difficile VPI10463. We examined the growth of bacteria in a 96-well plate under a concentration gradient of lantibiotics under anaerobic conditions (Figure S2B).
# (§6) Elution Buffer (4 M guanidine hydrochloride, 20 mM Tris HCl, pH 7.5 at 25 °C, 100 mM NaCl, 1 M imidazole). Peptides eluted from the Ni resin were concentrated and desalted using 3 kDa Amicon filters (Millipore). For leader peptide removal, the peptide (1:20 trypsin to peptide) was incubated with the trypsin protease in 50 mM Tris-HCl, pH 8 overnight at 37 °C. Lastly, the core peptides were further purified with HPLC using an Agilent 1200 instrument (Agilent) as specified […]
# (§7) in general methods. […]
# (§8) For broth cultures, isolates were grown in pre-reduced BHI supplemented with 5 g/L yeast extract (Difco, BD) and 0.1% L-cysteine under anaerobic condition. […]
# as §4
# [1] = tested on: D. formicigenerans MSK.17.61; type: cell-based, Dorea formicigenerans; settings: BHIS, 37 °C, 48 h, 3-fold serial dilution
# Text: Antibiotic treatment may result in collateral damage to commensal bacteria in the human microbiome, leading to dysbiosis and susceptibility to various diseases.[44] How lantibiotics impact Gram-positive commensals from the human gut has remained unclear. Therefore, we performed antimicrobial activity tests of these lantibiotics against selected Gram-positive human gut commensals, most of which belong to the Lachnospiraceae family, one of the most abundant bacterial families in the human gut.[27] In general, human gut commensals were more susceptible to the set of investigated lantibiotics compared to pathogens (Figure 3).
# as §6, with “specified in general methods. About 1.5 mg recombinant peptide was obtained after HPLC purification per” for “specified”
# as §4
# A. hadrus MSK.14.23 = type: cell-based, Anaerostipes hadrus; settings: BHIS, 37 °C, 48 h, 3-fold serial dilution
# Text: as §1, §2, §3, §4
# B. obeum MSK.18.40 = type: cell-based, Blautia obeum; settings: BHIS, 37 °C, 48 h, 3-fold serial dilution
# Text: as §1, §2, §3, §4
# C. comes MSK.11.23 = type: cell-based, Coprococcus comes
# Text: as §1, §2
# Isolation and growth of commensal bacteria was done as previously reported.5 Briefly, fresh donor fecal samples were transferred into an anaerobic chamber (Coy Labs) within 1 h of collection. The anaerobic chamber was maintained using a gas mix consisting of 5% hydrogen, 5% carbon dioxide and 90% nitrogen, and hydrogen was maintained at ~3.0% using an anaerobic gas infuser. Fecal samples were resuspended in pre-reduced PBS and plated on Columbia blood agar or brain-heart infusion (BHI – Difco, BD) agar plates in three serial 10-fold dilutions and incubated at 37 °C for 48 – 96 h. Isolated colonies were re-streaked for purity onto Columbia blood agar and frozen in pre-reduced 10% glycerol in PBS.
# (§9) For broth cultures, isolates were grown in pre-reduced BHI supplemented with 5 g/L yeast extract (Difco, BD) and 0.1% L-cysteine under anaerobic condition.
# (§10) Minimal Inhibition Concentration (MIC) assay
# (§11) All MIC assays were performed under anaerobic condition. Stationary bacterial culture in BHIS (BHI supplemented with 5 g/L yeast extract and 0.1% L-cysteine) were inoculated 1:100 to wells containing 200 µL BHIS in U-bottom 96-well plates. Lantibiotics were dissolved in DPBS, and concentrations were determined by BCA assay (Pierce) according to the manufacturer’s protocol.
# Lantibiotic stock solutions were added to wells to reach desired final concentration, with 3-fold serial dilution across rows to create concentration gradients. Bacteria-inoculated wells without lantibiotics served as control. Plates were incubated at 37 °C for 48 h before being taken out of the anaerobic chamber for centrifugation. Plates were imaged with an iBright 1500 imager […]
# pellets than those without lantibiotics were identified as MIC.
# C. difficile VPI10463 = type: cell-based, Clostridioides difficile; settings: BHIS, 37 °C, 48 h, 3-fold serial dilution
# Text: as §5, §6, §7, §8, §4
# L. monocytogenes 10403s = type: cell-based, Listeria monocytogenes; settings: BHIS, 37 °C, 48 h, 3-fold serial dilution
# Text: as §5, with “S2B). […]” for “S2B).”
# as §9, §10, §11
# Lantibiotic stock solutions were added to wells to reach desired final concentration, with 3-fold serial dilution across rows to create concentration gradients. Bacteria-inoculated wells without lantibiotics served as control. […]
substance,measurement,setting,value
"nisin A (I[Dhb]AI[Dha]LC[Abu]PGCK[Abu]GALMGCNMK[Abu]A[Abu]CHCSIHV[Dha]K; thioether 8-11, 13-19, 23-26, 25-28, 3-7; UniProt P13068 24-57, looked up) [prototypical class I lantibiotic produced by L. lactis, food preservative; commercial nisin A]",nisin A MIC,B. luti MSK.20.18,0.0329 µM
same,nisin A MIC,S. aureus USA300 (MRSA),2.67 µM
same,nisin A MIC,[1],0.0110 µM
same,nisin A MIC,A. hadrus MSK.14.23,0.0110 µM
same,nisin A MIC,B. obeum MSK.18.40,0.0110 µM
same,nisin A MIC,"C. comes MSK.11.23; C. comes MSK.11.23, anaerobic, BHIS, 37 °C, 48 h, 3-fold serial dilution",0.296 µM
same,sensitivity of C. comes MSK.11.23 to the lantibiotic (in words),"C. comes MSK.11.23; Figure 3, anaerobic MIC assay",relatively resistant
same,nisin A MIC,C. difficile VPI10463,2.67 µM
same,nisin A MIC,L. monocytogenes 10403s,2.67 µM

# Reference: PMC10877564, “Activity of Gut-Derived Nisin-like Lantibiotics against Human Gut Pathogens and Commensals” (ACS Chemical Biology, 2024)
